# Results published in patent US20160089464A1, “MALODOR REDUCTION COMPOSITIONS” (The Procter & Gamble Company, priority 2014, published 2016).
# Entries after “also recorded” stand apart in the source; their conditions may differ.
# Assay: Comment Code material properties: vapor pressure, ClogP, probability of ingredient color instability, odor detection threshold, melamine formaldehyde PMC headspace response ratio and leakage, liquid dish neat product liquid-air partition coefficient
# Type: physicochemical
# Details: cell strings several class symbols together; each letter is one property class of L1
row,Structure (SMILES),Comment Code
1,C=C1C2CCC(C)(C)C1CCC(OC)C2 (stereo not shown) [Material 7],BDEFHJK
2,CCOC1CCC(C(C)(C)CC)CC1 (stereo not shown) [Material 12],ADEFHJK
3,CC=CCOCC/C=C\CC [Material 19],ADEFHJKL
4,CC1C(C)(C)C2=C(C3OC(C)(C)OC3CC2)C1(C)C (stereo not shown) [Material 23],DEFHJK
5,C=CC(C)(CCC=C(C)C)OC (stereo not shown) [Material 24],ADHIJKL
6,CC(C)CCCC(C)CC=O (stereo not shown) [Material 27],ADGIJKL
7,CC1=CC(C)C2C(CCC(C)(C)C2O)C1 (stereo not shown) [Material 39],DEFHIJK
8,CC=CC(=O)OCCCCCC [Material 55],ADEFHJKL
9,CC(C)=CCC/C(C)=C\COC=O [Material 59],BCEFHJK
10,C=CC(C)=CCC1OC1(C)C (stereo not shown) [Material 73],ADGIJKL
11,CCC(C)(O)/C=C/C=C(C)C (stereo not shown) [Material 81],BCEFGIJK
12,CC/C=C\CCOC(=O)C1CC1 [Material 84],BCEFHIKL
13,COC(=O)Cc1ccccc1 [Material 97],ACEFHIKL
14,COC(=O)C=C(C)CCC=C(C)C [Material 111],BCHJKL
15,COC(C)(C)CCCC(C)C=O (stereo not shown) [Material 125],ACGIJK
16,CC(C)C1CCC(CO)CC1 (stereo not shown) [Material 133],BDEFHIJK
17,C=CC(C)(CCC=C(C)C)OC=O (stereo not shown) [Material 150],ACFHJK
18,C=CC(C)(CCC=C(C)C)OC(=O)CCC (stereo not shown) [Material 151],BDEFHJK
19,C=CC(C)(CCC=C(C)C)OC(C)=O (stereo not shown) [Material 154],BDHJK
20,C=CC(C)(O)CCC=C(C)C (stereo not shown) [Material 157],BCEFGIJK
21,C=C1[C@H]2CC[C@H](CO)[C@@]23CC[C@H](C3)C1(C)C [Material 183],CEFHJK
22,CC1(CO)CC1CC1CC2CC2(C)C1(C)C (stereo not shown) [Material 185],DEFHJK
23,CC(C)C=CCO [Material 194],ACGIKL

row,Structure (SMILES),Comment Code
1,CCC(C)C(=O)OC(C)C (stereo not shown) [Material 198],ACEFGIJKL
2,C=C(C)CC(C)OC(=O)C(C)C (stereo not shown) [Material 201],ADEFGIJKL
3,CC(=O)OCCCCCCC(C)C [Material 204],BDEFHJKL
4,CC(C)CCCCCCO [Material 205],BDEFGIKL
5,CC1CCCCCCCCCCCCC(=O)C1 (stereo not shown) [Material 206],DEFGJK
6,CC(=O)[C@@]1(C)CC2=C(CCCC2(C)C)C[C@@H]1C [Material 215],DHJK
7,CC(C)C(=O)OC1CC2CCC1(C)C2(C)C (stereo not shown) [Material 229],BDEFHIJK
8,CC1C2CC(CC2C2CCC(O)CC2)C1(C)C (stereo not shown) [Material 230],DEFHJK
9,CCCCCCCC(=O)OCCC(C)C [Material 237],DEFHJK
10,CC(C)CCOC(=O)C(C)C [Material 239],ACEFGIJKL
11,CCCCCCOC(=O)CC [Material 264],ADEFHIKL
12,CCCCCCOC(=O)CCC [Material 270],BDEFHJKL
13,CCCCCCOC(=O)C(C)CC (stereo not shown) [Material 273],BDEFHJKL
14,CCCCCCCO [Material 282],ACEFGIKL
15,CCCCCCCOC(C)=O [Material 283],ADEFHKL
16,CCCCCCC=O [Material 284],ACHIKL
17,O=Cc1ccc2c(c1)OCO2 [Material 287],BCGIK
18,CC(C)=CCCC(C)=CC#N [Material 302],BCEFHKL
19,CC(C)=CCC/C(C)=C/COC=O [Material 306],BCEFHJK
20,CCCCCCCC(=O)OC/C=C(\C)CCC=C(C)C [Material 308],DEFHJ
21,CCC(=O)OC1CC2C3C=CCC3C1C2(C)C (stereo not shown) [Material 343],DEFHJK
22,CC12CCC(C1)C(C)(C)C2O (stereo not shown) [Material 366],ACGIJKL
23,CC12CCC(CC1)C(C)(C)O2 [Material 376],ADEFGIJKL

row,Structure (SMILES),Comment Code
1,CC(=O)O.CCOc1cc(C=O)ccc1O [Material 379],CHJ
2,CCCCCCCC(=O)OCC [Material 387],BDEFHJKL
3,CCOC(=O)C(C)C1CCCCC1 (stereo not shown) [Material 412],BDFHIJKL
4,CC(=O)OC1CC2CC1C1CCCC21 (stereo not shown) [Material 441],DEFHJKL
5,CC(=O)OC(C)(C)C1CCC(C)CC1 (stereo not shown) [Material 447],BDEFHIJKL
6,CC(=O)CCC1C(C)=CCCC1(C)C (stereo not shown) [Material 448],BDHIJK
7,CCCCOC(=O)c1ccccc1C(=O)OCCCC [Material 455],DEFHJ
8,CCCCCC1CCCC1=O (stereo not shown) [Material 469],BDFHIKL
9,COC(=O)C1(C)CCC(C)CC1 (stereo not shown) [Material 477],ADEFHIJKL
10,CC(=O)OCCC1CCCCC1 [Material 481],BDEFHJKL
11,C=CC(C)=CC=CC(=C)C [Material 495],ADEFGIKL
12,CC(C)(O)CCC1CCCCC1 [Material 496],BDEFGIJK
13,O=C1CCCCCCC/C=C/CCCCCCC1 [Material 501],DEFGJ
14,CC(C)=CCCC(C)CC#N (stereo not shown) [Material 509],BCEFGIKL
15,CC(C)=CCCC(C)CCOC(=O)Cc1ccccc1 (stereo not shown) [Material 510],DFHJ
16,CC(C)=CCCC(C)CCOC=O (stereo not shown) [Material 512],BCEFGJKL
17,CC(C)=CCCC(C)CCO (stereo not shown) [Material 517],BCHIJKL
18,CC(C)=CCCC(C)CC=O (stereo not shown) [Material 518],ACHIJKL
19,CC1CCC2CC1C2(C)C (stereo not shown) [Material 525],ADEFGIJKL
20,CC/C=C\CCOC(=O)CCCC [Material 535],BDEFHJKL
21,C/C=C(\C)C(=O)OCC/C=C\CC [Material 536],BDEFHJK

# Results, then the molecule that gave them:
row,Comment Code,Structure (SMILES)
1,DFHJ,CC1COC(C)(c2ccc3c(c2)C(C)(C)CCC3(C)C)O1 (stereo not shown) [Material 2]
2,ADHIJKL,COC(C)(C)C1CC=C(C)CC1 (stereo not shown) [Material 20]
3,ACHK,COc1ccccc1C=CC=O [Material 26]
4,CEFHJ,CC1=CCC(C=CC(C)(C)C(C)O)C1(C)C (stereo not shown) [Material 53]
5,BCHJK,CCC(=O)OC(C)c1ccccc1 (stereo not shown) [Material 96]
6,BCEFGIKL,CC1CCC2(CCCC(=O)O2)C1 (stereo not shown) [Material 107]
7,CFGK,CCOc1cc(COC)ccc1O [Material 115]
8,ACEFHIKL,COC(=O)C=C1CCCC1 [Material 116]
9,CEFHJK,CC1OC(C)C2Cc3ccccc3C2O1 (stereo not shown) [Material 141]
10,ACEFGKL,CC/C=C\CCOC(=O)OC [Material 163]
11,BCEFHIKL,Cc1ccnc2ccccc12 [Material 166]
12,ACGIJKL,C=C(C)[C@@H]1CC=C(C)C(=O)C1 [Material 169]
13,CFGJ,COc1c2ccoc2c(OC)c2oc(=O)ccc12 [Material 199]
14,DFHJ,CC=Cc1ccc(OCc2ccccc2)c(OC)c1 [Material 212]
15,CFHJK,CC=Cc1ccc(OC(C)=O)c(OC)c1 [Material 213]
16,CEFHIK,CC=Cc1ccc(O)c(OC)c1 [Material 214]
17,DEFHJK; also recorded: BDEFHJK,CC1(C)C2=C(CO)CCC(C)(C)C23CCC1C3 (stereo not shown) [Material 248]
18,CEFHIK,O=C(O)CCc1ccccc1 [Material 255]
19,DHJK,CC1(C)CCc2ccc(CCC=O)cc21 [Material 260]
20,DEFHJK,CCCCCCOC(=O)c1ccco1 [Material 275]
21,CEFGJK,CC(=O)OC1CC2CC1C1CC=CC21 (stereo not shown) [Material 281]
22,DFHJ,CC(C)=CCC/C(C)=C/COC(=O)c1ccccc1 [Material 310]
23,BCEFHJK,CCC(C)C(=O)N(C)c1ccccc1 (stereo not shown) [Material 314]
24,ADEFGIJKL,CC1=CCC(C(C)C)=CC1 [Material 319]

row,Comment Code,Structure (SMILES)
1,DFHJK,CC1=C2CC(C(C)(C)O)CCC2(C)CCC1 (stereo not shown) [Material 329]
2,DEFHJK,CC1COCc2cc3c(cc21)C(C)(C)C(C)C3(C)C (stereo not shown) [Material 335]
3,CEFGJK,C/C=C1/CC2CC1C1CCC(=O)OC21 (stereo not shown) [Material 353]
4,BDHJK,CCc1ccccc1CC(C)(C)C=O [Material 354]
5,BDFHJK,CCOC(=O)OC1CCCCC1C(C)(C)C (stereo not shown) [Material 355]
6,DEFHJK,CC(O)C(C)/C=C1\C[C@H]2C[C@@H]1[C@@H]1C=CC[C@H]21 (stereo partly shown) [Material 359]
7,DEFHJK,CC(=O)OC1CC2C3C=CCC3C1C2(C)C (stereo not shown) [Material 360]
8,ACFHIKL,CCOC(=O)OC1CCCCC1C(C)(C)C (stereo not shown) [Material 365]
9,BCEFHK,CCOC(=O)C=Cc1ccccc1 [Material 400]
10,ACGIJKL,C=C(C)C1CCC(C)C(=O)C1 (stereo not shown) [Material 419]
11,BDEFHJK,CC1CCOC(c2ccccc2)C1 (stereo not shown) [Material 420]
12,BCFHIJKL,CCCCCC1=C(C)CCC1=O [Material 438]
13,ACEFGIJKL,CC1CC(=O)CC(C)(C)C1 (stereo not shown) [Material 439]
14,CEFHIJK,CCCc1ccc(O)c(OC)c1 [Material 440]
15,BCGIKL,O=C1CCc2ccccc2O1 [Material 442]
16,ACGIJKL,C=C(C)C1CCC(C)C(=O)C1 (stereo not shown) [Material 443]
17,DEFHJK,c1ccc(COCc2ccccc2)cc1 [Material 454]
18,DEFHJK,CCCC(=O)OC1CC2CC1C1CC=CC21 (stereo not shown) [Material 484]
19,DEFHJK,CC(C)C(=O)OC1CC2CC1C1C=CCC21 (stereo not shown) [Material 487]
20,DHJK,C=CC1(C)Cc2occ(C)c2CC1C(=C)C (stereo not shown) [Material 488]
21,BDHJK,C=CC(C)(C#N)Cc1ccccc1 (stereo not shown) [Material 504]
22,DFHJ,CC(C)=CCCC(C)CCOC(=O)c1ccccc1 (stereo not shown) [Material 515]
23,BCHIJKL,CC/C=C\CC1=C(C)CCC1=O [Material 526]
24,CEFHIK,C/C=C\c1ccc(O)c(OC)c1 [Material 528]
